# Results as given in PubChem BioAssay (NCI).
#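 GI50 marks 50% less growth. TGI: total growth inhibition.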
# Tests used:
# Assay in all cases: NCI-60 cell line screen, 384-well format
# HCT-15 colon = test system: HCT-15 colon
# LOX IMVI melanoma = test system: LOX IMVI melanoma
# NCI-H522 lung = test system: NCI-H522 lung
# 786-0 renal = test system: 786-0 renal
# OVCAR-5 ovarian = test system: OVCAR-5 ovarian
# IGROV1 ovarian = test system: IGROV1 ovarian
# SF-539 CNS = test system: SF-539 CNS
# DU-145 prostate = test system: DU-145 prostate
# SNB-75 CNS = test system: SNB-75 CNS
# OVCAR-3 ovarian = test system: OVCAR-3 ovarian
# BT-549 breast = test system: BT-549 breast
# MCF7 breast = test system: MCF7 breast
# A549 NSCLC = test system: A549 NSCLC
# HOP-62 NSCLC = test system: HOP-62 NSCLC
# NCI-H226 lung = test system: NCI-H226 lung
# SNB-19 CNS = test system: SNB-19 CNS
# CCRF-CEM leukemia = test system: CCRF-CEM leukemia
# SW-620 colon = test system: SW-620 colon
# SN12C renal = test system: SN12C renal
# SK-OV-3 ovarian = test system: SK-OV-3 ovarian
# PC-3 prostate = test system: PC-3 prostate
# A498 renal = test system: A498 renal
# NCI-H322M lung = test system: NCI-H322M lung
# U251 glioblastoma = test system: U251 glioblastoma
# HS 578T breast = test system: HS 578T breast
# T-47D breast = test system: T-47D breast
# OVCAR-4 ovarian = test system: OVCAR-4 ovarian
# HOP-92 NSCLC = test system: HOP-92 NSCLC
# ACHN renal = test system: ACHN renal
# OVCAR-8 ovarian = test system: OVCAR-8 ovarian
# SF-295 CNS = test system: SF-295 CNS
# MALME-3M melanoma = test system: MALME-3M melanoma
# NCI-H460 NSCLC = test system: NCI-H460 NSCLC
# NCI-H23 lung = test system: NCI-H23 lung
# UACC-257 melanoma = test system: UACC-257 melanoma
# RPMI-8226 leukemia = test system: RPMI-8226 leukemia
# UO-31 renal = test system: UO-31 renal
# SF-268 CNS = test system: SF-268 CNS
# MOLT-4 leukemia = test system: MOLT-4 leukemia
# COLO 205 colon = test system: COLO 205 colon
# HCT-116 colon = test system: HCT-116 colon
# EKVX NSCLC = test system: EKVX NSCLC
# HCC-2998 colon = test system: HCC-2998 colon
# MDA-MB-231 breast = test system: MDA-MB-231 breast
# TK-10 renal = test system: TK-10 renal
# HT29 colon = test system: HT29 colon
# K-562 leukemia = test system: K-562 leukemia
# SR leukemia = test system: SR leukemia
# MDA-MB-468 breast = test system: MDA-MB-468 breast
# HL-60(TB) leukemia = test system: HL-60(TB) leukemia
# CAKI-1 renal = test system: CAKI-1 renal
# NCI/ADR-RES ovarian = test system: NCI/ADR-RES ovarian
# KM12 colon = test system: KM12 colon
# SK-MEL-28 melanoma = test system: SK-MEL-28 melanoma
# MDA-MB-435 melanoma = test system: MDA-MB-435 melanoma
# M14 melanoma = test system: M14 melanoma
# SK-MEL-5 melanoma = test system: SK-MEL-5 melanoma
# RXF 393 renal = test system: RXF 393 renal
structure (smiles),measurement,setting,value
COc1cccc2cc(-c3nc(C4CCC(C(=O)O)CC4)n4ncnc(N)c34)[nH]c12 (stereo unspecified),GI50,HCT-15 colon,1360 nM
same,TGI,HCT-15 colon,57 µM
same,GI50,LOX IMVI melanoma,2690 nM
same,TGI,LOX IMVI melanoma,10.3 µM
same,GI50,NCI-H522 lung,400 nM
same,TGI,NCI-H522 lung,> 100 µM
same,GI50,786-0 renal,3.33 µM
same,TGI,786-0 renal,19.5 µM
same,GI50,OVCAR-5 ovarian,3.09 µM
same,TGI,OVCAR-5 ovarian,67.5 µM
same,GI50,IGROV1 ovarian,360 nM
same,TGI,IGROV1 ovarian,4.38 µM
same,GI50,SF-539 CNS,1760 nM
same,TGI,SF-539 CNS,10.4 µM
same,GI50,DU-145 prostate,3.71 µM
same,TGI,DU-145 prostate,> 100 µM
same,GI50,SNB-75 CNS,382 nM
same,TGI,SNB-75 CNS,2810 nM
same,GI50,OVCAR-3 ovarian,442 nM
same,TGI,OVCAR-3 ovarian,11.4 µM
same,GI50,BT-549 breast,1170 nM
same,TGI,BT-549 breast,5.36 µM
same,GI50,MCF7 breast,229 nM
same,TGI,MCF7 breast,> 100 µM
same,GI50,A549 NSCLC,2900 nM
same,TGI,A549 NSCLC,27.9 µM
same,GI50,HOP-62 NSCLC,1110 nM
same,TGI,HOP-62 NSCLC,5.42 µM
same,GI50,NCI-H226 lung,1150 nM
same,TGI,NCI-H226 lung,6.68 µM
same,GI50,SNB-19 CNS,8.96 µM
same,TGI,SNB-19 CNS,> 100 µM
same,GI50,CCRF-CEM leukemia,738 nM
same,TGI,CCRF-CEM leukemia,10.5 µM
same,GI50,SW-620 colon,4.22 µM
same,TGI,SW-620 colon,> 100 µM
same,GI50,SN12C renal,941 nM
same,TGI,SN12C renal,> 100 µM
same,GI50,SK-OV-3 ovarian,1440 nM
same,TGI,SK-OV-3 ovarian,26.8 µM
same,GI50,PC-3 prostate,560 nM
same,TGI,PC-3 prostate,5.83 µM
same,GI50,A498 renal,539 nM
same,TGI,A498 renal,4.25 µM
same,GI50,NCI-H322M lung,426 nM
same,TGI,NCI-H322M lung,21.5 µM
same,GI50,U251 glioblastoma,4.36 µM
same,TGI,U251 glioblastoma,> 100 µM
same,GI50,HS 578T breast,302 nM
same,TGI,HS 578T breast,1590 nM
same,GI50,T-47D breast,158 nM
same,TGI,T-47D breast,725 nM
same,GI50,OVCAR-4 ovarian,1250 nM
same,TGI,OVCAR-4 ovarian,5.75 µM
same,GI50,HOP-92 NSCLC,1000 nM
same,TGI,HOP-92 NSCLC,8.38 µM
same,GI50,ACHN renal,1180 nM
same,TGI,ACHN renal,13 µM
same,GI50,OVCAR-8 ovarian,2310 nM
same,TGI,OVCAR-8 ovarian,49.5 µM
same,GI50,SF-295 CNS,1160 nM
same,TGI,SF-295 CNS,4.99 µM
same,GI50,MALME-3M melanoma,190 nM
same,TGI,MALME-3M melanoma,878 nM
same,GI50,NCI-H460 NSCLC,390 nM
same,TGI,NCI-H460 NSCLC,13 µM
same,GI50,NCI-H23 lung,2300 nM
same,TGI,NCI-H23 lung,15 µM
same,GI50,UACC-257 melanoma,3.13 µM
same,TGI,UACC-257 melanoma,27 µM
same,GI50,RPMI-8226 leukemia,161 nM
same,TGI,RPMI-8226 leukemia,542 nM
same,GI50,UO-31 renal,919 nM
same,TGI,UO-31 renal,15.8 µM
same,GI50,SF-268 CNS,2300 nM
same,TGI,SF-268 CNS,31.3 µM
same,GI50,MOLT-4 leukemia,651 nM
same,TGI,MOLT-4 leukemia,10.2 µM
same,GI50,COLO 205 colon,1180 nM
same,TGI,COLO 205 colon,26.6 µM
same,GI50,HCT-116 colon,4.13 µM
same,TGI,HCT-116 colon,62.4 µM
same,GI50,EKVX NSCLC,1100 nM
same,TGI,EKVX NSCLC,11.6 µM
same,GI50,HCC-2998 colon,5.76 µM
same,TGI,HCC-2998 colon,44.1 µM
same,GI50,MDA-MB-231 breast,811 nM
same,TGI,MDA-MB-231 breast,> 100 µM
same,GI50,TK-10 renal,1750 nM
same,TGI,TK-10 renal,11 µM
same,GI50,HT29 colon,8.51 µM
same,TGI,HT29 colon,> 100 µM
same,GI50,K-562 leukemia,2610 nM
same,TGI,K-562 leukemia,38 µM
same,GI50,SR leukemia,293 nM
same,TGI,SR leukemia,1250 nM
same,GI50,MDA-MB-468 breast,210 nM
same,TGI,MDA-MB-468 breast,1520 nM
same,GI50,HL-60(TB) leukemia,11.3 µM
same,TGI,HL-60(TB) leukemia,23.8 µM
same,GI50,CAKI-1 renal,1590 nM
same,TGI,CAKI-1 renal,8.1 µM
same,GI50,NCI/ADR-RES ovarian,2450 nM
same,TGI,NCI/ADR-RES ovarian,17 µM
same,GI50,KM12 colon,964 nM
same,TGI,KM12 colon,> 100 µM
same,GI50,SK-MEL-28 melanoma,453 nM
same,TGI,SK-MEL-28 melanoma,7.41 µM
same,GI50,MDA-MB-435 melanoma,2390 nM
same,TGI,MDA-MB-435 melanoma,11.4 µM
same,GI50,M14 melanoma,727 nM
same,TGI,M14 melanoma,15.6 µM
same,GI50,SK-MEL-5 melanoma,518 nM
same,TGI,SK-MEL-5 melanoma,2180 nM
same,GI50,RXF 393 renal,1490 nM
same,TGI,RXF 393 renal,6.54 µM
